Source: PubChem BioAssay (NCI)
Where “and” joins values, the source holds several entries; their conditions need not be identical. Equal entries are not always repeated.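 Step 1: Grow cells in 96-well plates. Step 2: Expose to compound for 48 hours at 5 concentrations. Step 3: Interpolate endpoints linearly; if unreached, use highest concentration. Abbreviation: GI50, concentration required for 50% inhibition of growth. TGI denotes the concentration required for complete inhibition of growth.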

How the values were obtained:
Assay in all cases: NCI tumour cell line growth inhibition, 48 h
HCT-15 colon = tested on: HCT-15 colon
SNB-75 CNS = tested on: SNB-75 CNS
786-0 renal = tested on: 786-0 renal
UO-31 renal = tested on: UO-31 renal
OVCAR-4 ovarian = tested on: OVCAR-4 ovarian
LOX IMVI melanoma = tested on: LOX IMVI melanoma
EKVX NSCLC = tested on: EKVX NSCLC
SN12C renal = tested on: SN12C renal
SK-MEL-28 melanoma = tested on: SK-MEL-28 melanoma
UACC-62 melanoma = tested on: UACC-62 melanoma

O=C(Nc1ccc(Cl)c(Cl)c1)Nc1ccccc1O
GI50 (HCT-15 colon): 4.46 µM
TGI (HCT-15 colon): 23.9 µM
GI50 (SNB-75 CNS): 13.7 µM
TGI (SNB-75 CNS): 50.5 µM
GI50 (786-0 renal): 25.2 µM
TGI (786-0 renal): 75.1 µM
GI50 (UO-31 renal): 2.48 µM
TGI (UO-31 renal): 18.4 µM
GI50 (OVCAR-4 ovarian): 5.44 µM
TGI (OVCAR-4 ovarian): > 100 µM
GI50 (LOX IMVI melanoma): 4.58 µM
TGI (LOX IMVI melanoma): 24.2 µM
GI50 (EKVX NSCLC): 18.2 µM
TGI (EKVX NSCLC): 61.5 µM
GI50 (SN12C renal): 8.4 µM
TGI (SN12C renal): 25.1 µM
GI50 (SK-MEL-28 melanoma): 12.5 µM
TGI (SK-MEL-28 melanoma): 27.3 µM
GI50 (UACC-62 melanoma): 5.12 µM
TGI (UACC-62 melanoma): 19.8 µM

CC1CN1c1c(C(=O)/C=C/c2ccc(Cl)cc2)c(-c2ccccc2)nn(C)c1=O (stereo not given)
TGI (HCT-15 colon): 3.55 µM
TGI (SNB-75 CNS): 8.28 µM
TGI (786-0 renal): 8.95 µM
TGI (UO-31 renal): > 10 µM
TGI (OVCAR-4 ovarian): 7.52 µM
TGI (LOX IMVI melanoma): 4.17 µM
TGI (EKVX NSCLC): > 10 µM
TGI (SN12C renal): 8.45 µM
TGI (SK-MEL-28 melanoma): > 10 µM
TGI (UACC-62 melanoma): 5.69 µM

COc1ccc(Cc2cnc(NC(=O)c3ccc4c(c3)OCCO4)s2)cc1
GI50 (HCT-15 colon): 0.0167 µM
TGI (HCT-15 colon): > 100 µM
GI50 (SNB-75 CNS): 0.0192 µM
TGI (SNB-75 CNS): 44 µM
GI50 (786-0 renal): 0.0493 µM
TGI (786-0 renal): > 74.3 µM
GI50 (UO-31 renal): 1.2 µM
TGI (UO-31 renal): > 100 µM
GI50 (OVCAR-4 ovarian): 0.0836 µM
TGI (OVCAR-4 ovarian): > 100 µM
GI50 (LOX IMVI melanoma): 0.0456 µM
TGI (LOX IMVI melanoma): > 100 µM
GI50 (EKVX NSCLC): 0.0596 µM
TGI (EKVX NSCLC): > 100 µM
GI50 (SN12C renal): 0.0556 µM
TGI (SN12C renal): > 100 µM
GI50 (SK-MEL-28 melanoma): 3.75 µM
TGI (SK-MEL-28 melanoma): > 83.8 µM
GI50 (UACC-62 melanoma): 0.0292 µM
TGI (UACC-62 melanoma): 40.6 µM

COC(C(=O)[C@@H](O)[C@@H](C)O)[C@@H]1Cc2cc3cc(O[C@H]4C[C@@H](O[C@H]5C[C@@H](O)[C@H](O)C(C)O5)[C@H](O)C(C)O4)c(C)c(O)c3c(O)c2C(=O)[C@H]1O[C@H]1C[C@@H](O[C@H]2C[C@@H](O[C@H]3C[C@@H](O)[C@H](OC)C(C)O3)[C@@H](O)C(C)O2)[C@H](O)C(C)O1 (stereo not given in full)
GI50 (HCT-15 colon): 0.272 µM
TGI (HCT-15 colon): > 33.3 µM
TGI (SNB-75 CNS): 0.23 µM
GI50 (786-0 renal): 0.0313 µM
TGI (786-0 renal): > 26.9 µM
GI50 (UO-31 renal): 0.0953 µM
TGI (UO-31 renal): 0.934 µM
GI50 (OVCAR-4 ovarian): 0.049 µM
TGI (OVCAR-4 ovarian): > 26.5 µM
GI50 (LOX IMVI melanoma): 0.00894 µM
TGI (LOX IMVI melanoma): 0.0289 µM
TGI (EKVX NSCLC): > 33.3 µM
TGI (SN12C renal): > 33.3 µM
GI50 (SK-MEL-28 melanoma): 0.00946 µM
TGI (SK-MEL-28 melanoma): 0.0647 µM
GI50 (UACC-62 melanoma): 0.00659 µM
TGI (UACC-62 melanoma): 0.0217 µM

Cc1ncc([N+](=O)[O-])n1CCNS(=O)(=O)CCCn1ncnc1[N+](=O)[O-]
TGI (HCT-15 colon): > 100 µM
TGI (SNB-75 CNS): > 100 µM
TGI (786-0 renal): > 100 µM
TGI (UO-31 renal): > 100 µM
TGI (OVCAR-4 ovarian): > 100 µM
TGI (LOX IMVI melanoma): > 100 µM
TGI (EKVX NSCLC): > 100 µM
TGI (SN12C renal): > 100 µM
TGI (SK-MEL-28 melanoma): > 100 µM
TGI (UACC-62 melanoma): > 100 µM

O=c1[nH]c(=O)n([C@H]2CCCO2)cc1F
GI50 (HCT-15 colon): 1050 µM
TGI (HCT-15 colon): > 5000 µM
GI50 (SNB-75 CNS): > 5000 µM
TGI (SNB-75 CNS): 826 µM and > 5000 µM
GI50 (786-0 renal): 1780 µM
TGI (786-0 renal): > 5000 µM
TGI (UO-31 renal): > 5000 µM
TGI (OVCAR-4 ovarian): > 5000 µM
GI50 (LOX IMVI melanoma): 1120 µM
TGI (LOX IMVI melanoma): > 5000 µM
GI50 (EKVX NSCLC): > 2060 µM
TGI (EKVX NSCLC): > 5000 µM
GI50 (SN12C renal): 1910 µM
TGI (SN12C renal): > 5000 µM
GI50 (SK-MEL-28 melanoma): 1040 µM
TGI (SK-MEL-28 melanoma): > 5000 µM
GI50 (UACC-62 melanoma): 2040 µM
TGI (UACC-62 melanoma): > 5000 µM

Nc1ccc2[nH]cc(CCC(=O)O)c2c1
TGI (HCT-15 colon): > 100 µM
TGI (SNB-75 CNS): > 100 µM
TGI (786-0 renal): > 100 µM
TGI (UO-31 renal): > 100 µM
TGI (OVCAR-4 ovarian): > 100 µM
TGI (LOX IMVI melanoma): > 100 µM
TGI (EKVX NSCLC): > 100 µM
TGI (SN12C renal): > 100 µM
TGI (SK-MEL-28 melanoma): > 100 µM
TGI (UACC-62 melanoma): > 100 µM

CC1=C(c2cc(C(=O)Nc3ccc(Cl)cc3)nc(=S)[nH]2)Sc2ccccc2N1
TGI (HCT-15 colon): > 100 µM
TGI (SNB-75 CNS): > 100 µM
TGI (786-0 renal): > 100 µM
TGI (UO-31 renal): > 100 µM
TGI (OVCAR-4 ovarian): > 100 µM
TGI (LOX IMVI melanoma): > 100 µM
TGI (EKVX NSCLC): > 100 µM
TGI (SN12C renal): > 100 µM
TGI (SK-MEL-28 melanoma): > 100 µM
TGI (UACC-62 melanoma): > 100 µM

COC(=O)c1cc(/C=C/c2ccc(S(N)(=O)=O)cc2)ccc1O
GI50 (HCT-15 colon): 27 µM
TGI (HCT-15 colon): > 100 µM
GI50 (SNB-75 CNS): 57 µM
TGI (SNB-75 CNS): > 100 µM
GI50 (786-0 renal): 7.35 µM
TGI (786-0 renal): > 100 µM
GI50 (UO-31 renal): 29.1 µM
TGI (UO-31 renal): > 100 µM
GI50 (OVCAR-4 ovarian): 72.9 µM
TGI (OVCAR-4 ovarian): > 100 µM
GI50 (LOX IMVI melanoma): 30 µM
TGI (LOX IMVI melanoma): > 100 µM
GI50 (EKVX NSCLC): 29.3 µM
TGI (EKVX NSCLC): > 100 µM
GI50 (SN12C renal): 29.3 µM
TGI (SN12C renal): 89.9 µM
GI50 (SK-MEL-28 melanoma): 95.5 µM
TGI (SK-MEL-28 melanoma): > 100 µM
GI50 (UACC-62 melanoma): 25.6 µM
TGI (UACC-62 melanoma): 66 µM

S=C1SC2=Nc3ccccc3CN2C2=NCCN12
GI50 (HCT-15 colon): 33 µM
TGI (HCT-15 colon): > 100 µM
GI50 (SNB-75 CNS): 17.4 µM
TGI (SNB-75 CNS): > 100 µM
GI50 (786-0 renal): > 100 µM
TGI (786-0 renal): > 100 µM
GI50 (UO-31 renal): > 100 µM
TGI (UO-31 renal): > 100 µM
GI50 (OVCAR-4 ovarian): > 100 µM
TGI (OVCAR-4 ovarian): > 100 µM
GI50 (LOX IMVI melanoma): 25.9 µM
TGI (LOX IMVI melanoma): 83.2 µM
GI50 (EKVX NSCLC): > 100 µM
TGI (EKVX NSCLC): > 100 µM
GI50 (SN12C renal): > 100 µM
TGI (SN12C renal): > 100 µM
GI50 (SK-MEL-28 melanoma): > 100 µM
TGI (SK-MEL-28 melanoma): > 100 µM
GI50 (UACC-62 melanoma): 72.5 µM
TGI (UACC-62 melanoma): > 100 µM

Nc1nc(N)nc(CCCc2nc(N)nc(N)n2)n1
TGI (HCT-15 colon): > 100 µM
TGI (SNB-75 CNS): > 100 µM
TGI (786-0 renal): > 100 µM
TGI (UO-31 renal): > 100 µM
TGI (OVCAR-4 ovarian): > 100 µM
TGI (LOX IMVI melanoma): > 100 µM
TGI (EKVX NSCLC): > 100 µM
TGI (SN12C renal): > 100 µM
TGI (SK-MEL-28 melanoma): > 100 µM
TGI (UACC-62 melanoma): > 100 µM
